Data reported in patent publication US8192962B2, “Processes for detecting toxic substances” (Daikin Industries, Ltd., priority 2001, dated 2012).

Tested on: DNA repair protein genes
Experiment: DNA chip mRNA expression in yeast, DNA repair protein genes (Table 3)
Format: cell-based, Saccharomyces cerevisiae S288C
Conditions: incubated two hours, concentrations as in the 1st table
Outline: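 Expression change after 2 h toxicant exposure (growth-inhibiting, sub-lethal) of log-phase S. cerevisiae S288C at 25° C. Oligo-dT-purified mRNA was labeled with Cy3-dUTP or Cy5-dUTP and hybridized >12 h at 65° C. to a genome-wide chip; ratio of scanned fluorescence to control.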

COc1cc(CNC(=O)CCCCC=CC(C)C)ccc1O [(12), 8-methyl-N-vanillyl-6-nonenamide]
The level of expressed mRNA in the presence of chemical substance/The level of expressed mRNA in the absence of chemical substance (yeast gene YAL015C): 1.0 | The level of expressed mRNA in the presence of chemical substance/The level of expressed mRNA in the absence of chemical substance (yeast gene YAR007C): 0.9 | The level of expressed mRNA in the presence of chemical substance/The level of expressed mRNA in the absence of chemical substance (yeast gene YBL019W): 0.8 | The level of expressed mRNA in the presence of chemical substance/The level of expressed mRNA in the absence of chemical substance (yeast gene YBR073W): 0.9 | The level of expressed mRNA in the presence of chemical substance/The level of expressed mRNA in the absence of chemical substance (yeast gene YBR272C): 0.5 | The level of expressed mRNA in the presence of chemical substance/The level of expressed mRNA in the absence of chemical substance (yeast gene YCR014C): 0.7 | The level of expressed mRNA in the presence of chemical substance/The level of expressed mRNA in the absence of chemical substance (yeast gene YDL017W): 0.8 | The level of expressed mRNA in the presence of chemical substance/The level of expressed mRNA in the absence of chemical substance (yeast gene YDL059C): 1.3 | The level of expressed mRNA in the presence of chemical substance/The level of expressed mRNA in the absence of chemical substance (yeast gene YDL200C): 1.1 | The level of expressed mRNA in the presence of chemical substance/The level of expressed mRNA in the absence of chemical substance (yeast gene YDR054C): 1.0 | The level of expressed mRNA in the presence of chemical substance/The level of expressed mRNA in the absence of chemical substance (yeast gene YDR369C): 0.9 | The level of expressed mRNA in the presence of chemical substance/The level of expressed mRNA in the absence of chemical substance (yeast gene YEL019C): 1.0 | The level of expressed mRNA in the presence of chemical substance/The level of expressed mRNA in the absence of chemical substance (yeast gene YEL037C): 1.1 | The level of expressed mRNA in the presence of chemical substance/The level of expressed mRNA in the absence of chemical substance (yeast gene YER162C): 0.4 | The level of expressed mRNA in the presence of chemical substance/The level of expressed mRNA in the absence of chemical substance (yeast gene YFL014W): 4.3 | The level of expressed mRNA in the presence of chemical substance/The level of expressed mRNA in the absence of chemical substance (yeast gene YGL058W): 1.3 | The level of expressed mRNA in the presence of chemical substance/The level of expressed mRNA in the absence of chemical substance (yeast gene YGL091C): 1.2 | The level of expressed mRNA in the presence of chemical substance/The level of expressed mRNA in the absence of chemical substance (yeast gene YGL127C): 1.4 | The level of expressed mRNA in the presence of chemical substance/The level of expressed mRNA in the absence of chemical substance (yeast gene YGL163C): 0.9 | The level of expressed mRNA in the presence of chemical substance/The level of expressed mRNA in the absence of chemical substance (yeast gene YGL249W): 0.8 | The level of expressed mRNA in the presence of chemical substance/The level of expressed mRNA in the absence of chemical substance (yeast gene YGR180C): 0.9 | The level of expressed mRNA in the presence of chemical substance/The level of expressed mRNA in the absence of chemical substance (yeast gene YGR231C): 1.3 | The level of expressed mRNA in the presence of chemical substance/The level of expressed mRNA in the absence of chemical substance (yeast gene YGR258C): 0.9 | The level of expressed mRNA in the presence of chemical substance/The level of expressed mRNA in the absence of chemical substance (yeast gene YHR164C): 1.2 | The level of expressed mRNA in the presence of chemical substance/The level of expressed mRNA in the absence of chemical substance (yeast gene YIL036W): 1.2 | The level of expressed mRNA in the presence of chemical substance/The level of expressed mRNA in the absence of chemical substance (yeast gene YIL072W): 1.1 | The level of expressed mRNA in the presence of chemical substance/The level of expressed mRNA in the absence of chemical substance (yeast gene YIL143C): 0.9 | The level of expressed mRNA in the presence of chemical substance/The level of expressed mRNA in the absence of chemical substance (yeast gene YIL153W): 1.0 | The level of expressed mRNA in the presence of chemical substance/The level of expressed mRNA in the absence of chemical substance (yeast gene YIR002C): 1.3 | The level of expressed mRNA in the presence of chemical substance/The level of expressed mRNA in the absence of chemical substance (yeast gene YJL026W): 1.0 | The level of expressed mRNA in the presence of chemical substance/The level of expressed mRNA in the absence of chemical substance (yeast gene YJR046W): 0.9 | The level of expressed mRNA in the presence of chemical substance/The level of expressed mRNA in the absence of chemical substance (yeast gene YJR052W): 1.1 | The level of expressed mRNA in the presence of chemical substance/The level of expressed mRNA in the absence of chemical substance (yeast gene YKL145W): 1.3 | The level of expressed mRNA in the presence of chemical substance/The level of expressed mRNA in the absence of chemical substance (yeast gene YLR103C): 1.6 | The level of expressed mRNA in the presence of chemical substance/The level of expressed mRNA in the absence of chemical substance (yeast gene YLR233C): 0.9 | The level of expressed mRNA in the presence of chemical substance/The level of expressed mRNA in the absence of chemical substance (yeast gene YLR288C): 0.6 | The level of expressed mRNA in the presence of chemical substance/The level of expressed mRNA in the absence of chemical substance (yeast gene YML032C): 0.9 | The level of expressed mRNA in the presence of chemical substance/The level of expressed mRNA in the absence of chemical substance (yeast gene YML058W): 0.9 | The level of expressed mRNA in the presence of chemical substance/The level of expressed mRNA in the absence of chemical substance (yeast gene YMR035W): 0.5 | The level of expressed mRNA in the presence of chemical substance/The level of expressed mRNA in the absence of chemical substance (yeast gene YMR072W): 0.8 | The level of expressed mRNA in the presence of chemical substance/The level of expressed mRNA in the absence of chemical substance (yeast gene YMR096W): 1.4 | The level of expressed mRNA in the presence of chemical substance/The level of expressed mRNA in the absence of chemical substance (yeast gene YMR284W): 0.6 | The level of expressed mRNA in the presence of chemical substance/The level of expressed mRNA in the absence of chemical substance (yeast gene YNL213C): 0.8 | The level of expressed mRNA in the presence of chemical substance/The level of expressed mRNA in the absence of chemical substance (yeast gene YNL250W): 1.4 | The level of expressed mRNA in the presence of chemical substance/The level of expressed mRNA in the absence of chemical substance (yeast gene YNL261W): 0.8 | The level of expressed mRNA in the presence of chemical substance/The level of expressed mRNA in the absence of chemical substance (yeast gene YNL312W): 0.9 | The level of expressed mRNA in the presence of chemical substance/The level of expressed mRNA in the absence of chemical substance (yeast gene YOL043C): 0.8 | The level of expressed mRNA in the presence of chemical substance/The level of expressed mRNA in the absence of chemical substance (yeast gene YOR005C): 0.9 | The level of expressed mRNA in the presence of chemical substance/The level of expressed mRNA in the absence of chemical substance (yeast gene YOR386W): 1.2 | The level of expressed mRNA in the presence of chemical substance/The level of expressed mRNA in the absence of chemical substance (yeast gene YPL022W): 0.7 | The level of expressed mRNA in the presence of chemical substance/The level of expressed mRNA in the absence of chemical substance (yeast gene YPL164C): 0.9 | The level of expressed mRNA in the presence of chemical substance/The level of expressed mRNA in the absence of chemical substance (yeast gene YPL194W): 0.9 | The level of expressed mRNA in the presence of chemical substance/The level of expressed mRNA in the absence of chemical substance (yeast gene YPR025C): 0.7

CCCCC[C@H](O)CC(=O)CCc1ccc(O)c(OC)c1 [(13), gingerol]
The level of expressed mRNA in the presence of chemical substance/The level of expressed mRNA in the absence of chemical substance (yeast gene YDL200C): 1.1 | The level of expressed mRNA in the presence of chemical substance/The level of expressed mRNA in the absence of chemical substance (yeast gene YEL019C): 1.0 | The level of expressed mRNA in the presence of chemical substance/The level of expressed mRNA in the absence of chemical substance (yeast gene YGL058W): 1.0 | The level of expressed mRNA in the presence of chemical substance/The level of expressed mRNA in the absence of chemical substance (yeast gene YIL072W): 1.4 | The level of expressed mRNA in the presence of chemical substance/The level of expressed mRNA in the absence of chemical substance (yeast gene YLR233C): 1.0 | The level of expressed mRNA in the presence of chemical substance/The level of expressed mRNA in the absence of chemical substance (yeast gene YLR288C): 0.7 | The level of expressed mRNA in the presence of chemical substance/The level of expressed mRNA in the absence of chemical substance (yeast gene YMR284W): 1.0 | The level of expressed mRNA in the presence of chemical substance/The level of expressed mRNA in the absence of chemical substance (yeast gene YNL312W): 0.7 | The level of expressed mRNA in the presence of chemical substance/The level of expressed mRNA in the absence of chemical substance (yeast gene YPL164C): 1.0 | The level of expressed mRNA in the presence of chemical substance/The level of expressed mRNA in the absence of chemical substance (yeast gene YPR025C): 1.1
